Source: PubChem BioAssay AID192 (DTP/NCI, 2004)
Where “and” joins values, the source holds several entries; their conditions need not be identical. Identical values can stand only once. Inconclusive results and toxic doses are left out. Peptide text beside a SMILES is read from it. * marks the point of attachment. Trt = c1ccc(C(c2ccccc2)(c2ccccc2)*)cc1; Cbz = O=C(OCc1ccccc1)*; Bn = c1ccc(C*)cc1; βAla = NCCC(=O)O

Test system: BDF1 mice, B16 melanoma ip, median survival T/C
Assay: NCI In Vivo Anticancer Drug Screen. Data for tumor model B16 Melanoma (intraperitoneal) in B6D2F1 (BDF1) mice
Conditions: endpoint: median survival time, higher = longer survival
Method in brief: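 Antitumor activity is assessed in mice bearing a transplanted tumor, with survival or tumor size compared against vehicle-dosed controls and expressed as T/C.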

[1] = dose: 12.5 mg/kg/injection, schedule: Q01DX009 (ip), vehicle: Klucel (hydroxypropylcellulose) (HPC)
[2] = dose: 25.0 mg/kg/injection, schedule: Q01DX009 (ip), vehicle: Klucel (hydroxypropylcellulose) (HPC)
[3] = dose: 50.0 mg/kg/injection, schedule: Q01DX009 (ip), vehicle: Klucel (hydroxypropylcellulose) (HPC)
[4] = dose: 400.0 mg/kg/injection, schedule: Q01DX009 (ip), vehicle: Klucel (hydroxypropylcellulose) (HPC)
[5] = dose: 0.8 mg/kg/injection, schedule: Q01DX009 (ip), vehicle: saline
[6] = dose: 100.0 mg/kg/injection, schedule: Q01DX009 (ip), vehicle: Klucel (hydroxypropylcellulose) (HPC)
[7] = dose: 200.0 mg/kg/injection, schedule: Q01DX009 (ip), vehicle: Klucel (hydroxypropylcellulose) (HPC)
[8] = dose: 12.5 mg/kg/injection, schedule: Q01DX009 (ip), vehicle: saline with Tween-80
[9] = dose: 25.0 mg/kg/injection, schedule: Q01DX009 (ip), vehicle: saline with Tween-80
[10] = dose: 50.0 mg/kg/injection, schedule: Q01DX009 (ip), vehicle: saline with Tween-80
[11] = dose: 100.0 mg/kg/injection, schedule: Q01DX009 (ip), vehicle: saline with Tween-80

C/C1=C/C2=CC(C)C[C@@H]2C(=O)[C@]2(C)C(=O)CC(C)(C)[C@H]2CC1=O (some centres undefined)
T/C (dose: 0.13 mg/kg/injection, schedule: Q01DX009 (ip), vehicle: Klucel (hydroxypropylcellulose) (HPC)): 102 % of control | T/C (dose: 0.25 mg/kg/injection, schedule: Q01DX009 (ip), vehicle: Klucel (hydroxypropylcellulose) (HPC)): 96 % of control | T/C (dose: 0.5 mg/kg/injection, schedule: Q01DX009 (ip), vehicle: Klucel (hydroxypropylcellulose) (HPC)): 96 % of control | T/C (dose: 1.0 mg/kg/injection, schedule: Q01DX009 (ip), vehicle: Klucel (hydroxypropylcellulose) (HPC)): 91 % of control

OCCN1CCCN(CCCN2c3ccccc3Sc3ccc(C(F)(F)F)cc32)CC1
T/C (dose: 0.14 mg/kg/injection, schedule: Q04DX003 (ip), vehicle: saline): 108 % of control | T/C (dose: 0.29 mg/kg/injection, schedule: Q04DX003 (ip), vehicle: saline): 100 % of control | T/C (dose: 0.58 mg/kg/injection, schedule: Q01DX009 (ip), vehicle: saline): 98 % of control | T/C (dose: 0.58 mg/kg/injection, schedule: Q04DX003 (ip), vehicle: saline): 99 % of control | T/C (dose: 1.17 mg/kg/injection, schedule: Q01DX009 (ip), vehicle: saline): 98 % of control | T/C (dose: 1.17 mg/kg/injection, schedule: Q04DX003 (ip), vehicle: saline): 104 % of control | T/C (dose: 2.34 mg/kg/injection, schedule: Q01DX009 (ip), vehicle: saline): 96 % of control | T/C (dose: 2.34 mg/kg/injection, schedule: Q04DX003 (ip), vehicle: saline): 105 % of control and 116 % of control | T/C (dose: 4.68 mg/kg/injection, schedule: Q01DX009 (ip), vehicle: saline): 90 % of control | T/C (dose: 4.68 mg/kg/injection, schedule: Q04DX003 (ip), vehicle: saline): 122 % of control | T/C (dose: 9.37 mg/kg/injection, schedule: Q04DX003 (ip), vehicle: saline): 119 % of control

COC(=O)C(CSC(c1ccccc1)(c1ccccc1)c1ccccc1)NC(=O)C(CSCc1ccccc1)NC(=O)CCNC(=O)OCc1ccccc1 (centres undefined) ({Cbz-βAla}-Cys(Bn)-Cys(Trt)-OMe; configuration not given here)
T/C [1]: 86 % of control | T/C [2]: 87 % of control and 92 % of control | T/C [3]: 89 % of control and 120 % of control | T/C [4]: 167 % of control

NCCC(O)C(=O)NC1CC(N)C(OC2OC(CO)C(O)C(O)C2N)C(OC2OC(CO)C(O)C2O)C1O (centres undefined)
T/C (dose: 10.0 mg/kg/injection, schedule: Q01DX009 (ip), vehicle: saline): 122 % of control | T/C (dose: 20.0 mg/kg/injection, schedule: Q01DX009 (ip), vehicle: saline): 124 % of control

CCC1(O)CC2CN(CCc3c([nH]c4ccccc34)C(C(=O)OC)(c3cc4c(cc3OC)N(C)C3C(O)(C(=O)NCCO)C(O)C5(CC)C=CCN6CCC43C65)C2)C1 (centres undefined)
T/C (dose: 0.2 mg/kg/injection, schedule: Q01DX009 (ip), vehicle: saline): 164 % of control | T/C (dose: 0.22 mg/kg/injection, schedule: Q01DX009 (ip), vehicle: water): 121 % of control | T/C (dose: 0.36 mg/kg/injection, schedule: Q01DX009 (ip), vehicle: water): 162 % of control | T/C (dose: 0.4 mg/kg/injection, schedule: Q01DX009 (ip), vehicle: saline): 191 % of control | T/C (dose: 0.6 mg/kg/injection, schedule: Q01DX009 (ip), vehicle: water): 161 % of control | T/C [5]: 218 % of control | T/C (dose: 1.0 mg/kg/injection, schedule: Q04DX003 (ip), vehicle: saline): 155 % of control | T/C (dose: 1.04 mg/kg/injection, schedule: Q01DX001 (ip), vehicle: water): 121 % of control | T/C (dose: 1.44 mg/kg/injection, schedule: Q04DX003 (ip), vehicle: water): 155 % of control and 179 % of control | T/C (dose: 1.67 mg/kg/injection, schedule: Q04DX003 (ip), vehicle: saline): 161 % of control | T/C (dose: 2.4 mg/kg/injection, schedule: Q04DX003 (ip), vehicle: water): 155 % of control and 206 % of control | T/C (dose: 2.9 mg/kg/injection, schedule: Q01DX001 (ip), vehicle: water): 122 % of control | T/C (dose: 4.0 mg/kg/injection, schedule: Q04DX003 (ip), vehicle: water): 87 % of control | T/C (dose: 648.0 micrograms/kg/injection, schedule: Q04DX003 (ip), vehicle: saline): 163 % of control | T/C (dose: 1080.0 micrograms/kg/injection, schedule: Q04DX003 (ip), vehicle: saline): 167 % of control | T/C (dose: 1800.0 micrograms/kg/injection, schedule: Q04DX003 (ip), vehicle: saline): 156 % of control and 182 % of control | T/C (dose: 3000.0 micrograms/kg/injection, schedule: Q04DX003 (ip), vehicle: saline): 166 % of control and 179 % of control

CC1=CC(=O)C(CO)=CC1=O
T/C (dose: 0.05 mg/kg/injection, schedule: Q01DX009 (ip), vehicle: saline with Tween-80): 94 % of control | T/C (dose: 0.1 mg/kg/injection, schedule: Q01DX009 (ip), vehicle: saline with Tween-80): 103 % of control | T/C (dose: 0.2 mg/kg/injection, schedule: Q01DX009 (ip), vehicle: saline with Tween-80): 93 % of control | T/C (dose: 0.38 mg/kg/injection, schedule: Q01DX009 (ip), vehicle: saline with Tween-80): 93 % of control | T/C (dose: 0.4 mg/kg/injection, schedule: Q01DX009 (ip), vehicle: saline with Tween-80): 94 % of control

Nc1ncnc2c1ncn2C1OC(CO)CC1O (centres undefined)
T/C (dose: 18.75 mg/kg/injection, schedule: Q01DX009 (ip), vehicle: Klucel (hydroxypropylcellulose) (HPC)): 113 % of control | T/C (dose: 37.5 mg/kg/injection, schedule: Q01DX009 (ip), vehicle: Klucel (hydroxypropylcellulose) (HPC)): 112 % of control and 119 % of control | T/C (dose: 75.0 mg/kg/injection, schedule: Q01DX009 (ip), vehicle: Klucel (hydroxypropylcellulose) (HPC)): 104 % of control and 115 % of control

Cc1ccc(NC(=O)NC(C)C)c(C)c1
T/C (dose: 6.25 mg/kg/injection, schedule: Q01DX009 (ip), vehicle: Klucel (hydroxypropylcellulose) (HPC)): 101 % of control | T/C [1]: 95 % of control | T/C [2]: 94 % of control

CCCCCCCCCC(O)CC (centres undefined)
T/C [6]: 98 % of control | T/C [7]: 96 % of control | T/C [4]: 100 % of control

c1ccc2c(c1)CNNC2
T/C (dose: 50.0 mg/kg/injection, schedule: Q01DX009 (ip), vehicle: saline): 123 % of control | T/C (dose: 100.0 mg/kg/injection, schedule: Q01DX009 (ip), vehicle: saline): 111 % of control | T/C (dose: 200.0 mg/kg/injection, schedule: Q01DX009 (ip), vehicle: saline): 100 % of control

COC(=O)CC(=O)C=P(c1ccccc1)(c1ccccc1)c1ccccc1
T/C [8]: 98 % of control | T/C [9]: 103 % of control | T/C [10]: 107 % of control | T/C [11]: 113 % of control

COC1=C(OC)C(=O)C(SC/C=C(\C)CCCC(C)CCCC(C)CCCC(C)C)=CC1=O (centres undefined)
T/C [8]: 108 % of control | T/C [9]: 105 % of control | T/C [10]: 110 % of control | T/C [11]: 115 % of control

CC(Cc1ccccc1)NCCc1c2ccccc2nc2ccccc12 (centres undefined)
T/C [1]: 92 % of control | T/C [2]: 86 % of control and 100 % of control | T/C [3]: 90 % of control and 92 % of control | T/C [7]: 92 % of control

CCCCNC(=O)Nc1c(C)cccc1C
T/C (dose: 100.0 mg/kg/injection, schedule: Q01DX009 (ip), vehicle: gum acacia): 95 % of control | T/C (dose: 200.0 mg/kg/injection, schedule: Q01DX009 (ip), vehicle: gum acacia): 94 % of control

CCc1ccccc1NC(=O)c1cccc(C(=O)Nc2ccccc2CC)c1
T/C [3]: 102 % of control | T/C [6]: 105 % of control | T/C [7]: 102 % of control

O=C(Nc1ccccc1)N(Cc1ccccc1)c1ccccc1
T/C (dose: 50.0 mg/kg/injection, schedule: Q04DX009 (ip), vehicle: Klucel (hydroxypropylcellulose) (HPC)): 104 % of control | T/C (dose: 100.0 mg/kg/injection, schedule: Q04DX009 (ip), vehicle: Klucel (hydroxypropylcellulose) (HPC)): 104 % of control | T/C (dose: 200.0 mg/kg/injection, schedule: Q04DX003 (ip), vehicle: carboxymethylcellulose (CMC)): 105 % of control | T/C (dose: 200.0 mg/kg/injection, schedule: Q04DX009 (ip), vehicle: Klucel (hydroxypropylcellulose) (HPC)): 93 % of control

Cc1c(N)nc([C@H](CC(N)=O)NC[C@H](N)C(N)=O)nc1C(=O)N[C@H](C(=O)N[C@H](C)[C@@H](O)CC(=O)N[C@H](C(=O)NC(O[C@@H]1O[C@@H](C)[C@@H](N)[C@@H](O)[C@H]1O)C(O)c1nc(-c2nc(C(=O)NCCCCN)cs2)cs1)[C@@H](C)O)[C@@H](O[C@@H]1O[C@@H](CO)[C@@H](O)[C@H](O)[C@@H]1O[C@H]1O[C@H](CO)[C@@H](O)[C@H](OC(N)=O)[C@@H]1O)c1c[nH]cn1 (some centres undefined)
T/C [5]: 152 % of control | T/C (dose: 1.6 mg/kg/injection, schedule: Q01DX009 (ip), vehicle: saline): 152 % of control | T/C (dose: 3.2 mg/kg/injection, schedule: Q01DX009 (ip), vehicle: saline): 150 % of control
